# From patent publication US8912121B2, “Herbicidal compositions comprising 4-amino-3-chloro-5-fluoro-6-(4-chloro-2-fluoro-3-methoxyphenyl)pyridine-2-carboxylic acid or a derivative thereof and certain PS II inhibitors” (Dow Agrosciences LLC, priority 2012, dated 2014)
# Tested on: XANST (Xanthium strumarium, common cocklebur)
# Assay: Pre-emergence soil-applied mixtures, greenhouse
# Format: in vivo, Xanthium strumarium L.
# Conditions: for Visual Weed Control (%) Obs: 32 DAA
# Source text: Seeds or nutlets of the desired test plant species were planted in a soil matrix prepared by mixing a loam soil (32 percent silt, 23 percent clay, and 45 percent sand, with a pH of about 6.5 and an organic matter content of about 1.9 percent) and calcareous grit in an 80 to 20 ratio. The soil matrix was contained in plastic pots with a volume of 1 quart and a surface area of 83.6 square centimeters (cm^2).
# Treatments consisted of the benzyl ester of 4-amino-3-chloro-5-fluoro-6-(4-chloro-2-fluoro-3-methoxy-phenyl)pyridine-2-carboxylic acid (compound A) formulated as an SC (suspension concentrate) and various herbicidal components alone and in combination. Forms of compound A were applied on an acid equivalent basis.
# Other herbicidal components were applied on an acid equivalent or active ingredient basis and included the PSII-inhibiting herbicides, atrazine formulated as Atrazine® 90WDG, metribuzin formulated as Metribuzin 75DF, simazine formulated as Princep Caliber 90, tebuthiuron formulated as Spike 80DF, cyanazine (technical grade material), hexazinone (technical grade material), linuron (technical grade material), terbuthylazine (technical grade material), and diuron formulated as Diuron 4L.
# Treatment requirements were calculated based upon the rates being tested, the concentration of active ingredient or acid equivalent in the formulation, and a 12 mL application volume at a rate of 187 L/ha.
# For treatments comprised of formulated compounds, measured amounts of compounds were placed individually in 25 mL glass vials and diluted in a volume of 1.25% (v/v) Agri-Dex® crop oil concentrate (COC) to obtain 12× stock solutions. […] Application solutions were prepared by adding an appropriate amount of each stock solution (e.g., 1 mL) and diluted to the appropriate final concentrations with the addition of 10 mL of an aqueous mixture of 1.25% (v/v) COC so that the final spray solutions contained 1.25% (v/v) COC.
# For treatments comprised of technical compounds, weighed amounts can be placed individually in 25 mL glass vials and dissolved in a volume of 97:3 (v/v) acetone/DMSO to obtain 12× stock solutions. […] Application solutions can be prepared by adding an appropriate amount of each stock solution (e.g., 1 mL) and diluted to the appropriate final concentrations with the addition of 10 mL of an aqueous mixture of 1.5% (v/v) COC so that the final spray solutions contain 1.25% (v/v) COC. When technical materials are used, the concentrated stock solutions can be added to the spray solutions so that the final acetone and DMSO concentrations of the application solutions are 16.2% and 0.5%, respectively.
# For treatments comprised of formulated and technical compounds, weighed amounts of the technical materials can be placed individually in 25 mL glass vials and dissolved in a volume of 97:3 (v/v) acetone/DMSO to obtain 12× stock solutions, and measured amounts of the formulated compounds can be placed individually in 25 mL glass vials and diluted in a volume of 1.5% (v/v) COC or water to obtain 12× stock solutions. […] Application solutions can be prepared by adding an appropriate amount of each stock solution (e.g., 1 mL) and diluted to the appropriate final concentrations with the addition of an appropriate amount of an aqueous mixture of 1.5% (v/v) COC so that the final spray solutions contain 1.25% (v/v) COC. As required, additional water and/or 97:3 (v/v) acetone/DMSO can be added to individual application solutions so that the final acetone and DMSO concentrations of the application solutions being compared are 8.1% and 0.25%, respectively.
# All stock solutions and applications solutions were visually inspected for compound compatibility prior to application. Spray solutions were applied to the soil with an overhead Mandel track sprayer equipped with a 8002E nozzles calibrated to deliver 187 L/ha over an application area of 0.503 m^2 at a spray height of 18 inches (46 cm) above average pot height. […]
# [1] = Compound A Benzyl Ester 16 g ae/ha
# [2] = Compound A Benzyl Ester 32 g ae/ha
compound,measurement,setting,value
"CCNc1nc(Cl)nc(NC(C)C)n1 [Atrazine, 6-chloro-N-ethyl-N′-(1-methylethyl)-1,3,5-triazine-2,4-diamine, reference compound]",Visual Weed Control (%) Obs,560 g ai/ha,68%
same,Visual Weed Control (%) Obs,1120 g ai/ha,40%
"COc1c(Cl)ccc(-c2nc(C(=O)OCc3ccccc3)c(Cl)c(N)c2F)c1F [Compound A Benzyl Ester, benzyl ester of 4-amino-3-chloro-5-fluoro-6-(4-chloro-2-fluoro-3-methoxy-phenyl)pyridine-2-carboxylic acid]",Visual Weed Control (%) Obs,8 g ae/ha,33%
same,Visual Weed Control (%) Obs,16 g ae/ha,35%
same,Visual Weed Control (%) Obs,32 g ae/ha,65%
same,Visual Weed Control (%) - 27 DAA XANST Obs,[1],10%
same,Visual Weed Control (%) - 29 DAA XANST Obs,[1],0%
same,Visual Weed Control (%) - 33 DAA XANST Obs,[1],38%
same,Visual Weed Control (%) - 27 DAA XANST Obs,[2],25%
same,Visual Weed Control (%) - 29 DAA XANST Obs,[2],5%
same,Visual Weed Control (%) - 33 DAA XANST Obs,[2],35%
"CCNc1nc(Cl)nc(NCC)n1 [Simazine, 6-chloro-N,N′-diethyl-1,3,5-triazine-2,4-diamine, reference compound]",Visual Weed Control (%) - 33 DAA XANST Obs,Simazine 1120 g ai/ha,70%
same,Visual Weed Control (%) - 33 DAA XANST Obs,Simazine 2240 g ai/ha,92%
